Source: PubChem BioAssay AID1259407 (Chemical Carcinogenesis Research Information System (CCRIS), 2018)
Active and inactive are the calls of the source. How the calls were made is not given here.

Tested on: CCRIS mutagenicity, Ames/micronucleus/aberration tests
Assay: CCRIS mutagenicity studies
[1] = Test System: AMES SALMONELLA TYPHIMURIUM, Strain/Indicator: TA98, Metabolic Activation: NONE, Method: PREINCUBATION
[2] = Test System: AMES SALMONELLA TYPHIMURIUM, Strain/Indicator: TA98, Metabolic Activation: RAT, LIVER, S-9, AROCLOR 1254, Method: PREINCUBATION
[3] = Test System: AMES SALMONELLA TYPHIMURIUM, Strain/Indicator: TA100, Metabolic Activation: NONE, Method: PREINCUBATION
[4] = Test System: AMES SALMONELLA TYPHIMURIUM, Strain/Indicator: TA100, Metabolic Activation: RAT, LIVER, S-9, AROCLOR 1254, Method: PREINCUBATION
[5] = Test System: AMES SALMONELLA TYPHIMURIUM, Strain/Indicator: TA1535, Metabolic Activation: NONE, Method: PREINCUBATION
[6] = Test System: AMES SALMONELLA TYPHIMURIUM, Strain/Indicator: TA1535, Metabolic Activation: RAT, LIVER, S-9, AROCLOR 1254, Method: PREINCUBATION
[7] = Test System: AMES SALMONELLA TYPHIMURIUM, Strain/Indicator: TA98, Metabolic Activation: RAT, LIVER, S-9, AROCLOR 1254, Method: STANDARD PLATE
[8] = Test System: AMES SALMONELLA TYPHIMURIUM, Strain/Indicator: TA100, Metabolic Activation: NONE, Method: STANDARD PLATE
[9] = Test System: AMES SALMONELLA TYPHIMURIUM, Strain/Indicator: TA100, Metabolic Activation: RAT, LIVER, S-9, AROCLOR 1254, Method: STANDARD PLATE
[10] = Test System: AMES SALMONELLA TYPHIMURIUM, Strain/Indicator: TA1535, Metabolic Activation: RAT, LIVER, S-9, AROCLOR 1254, Method: STANDARD PLATE
[11] = Test System: AMES SALMONELLA TYPHIMURIUM, Strain/Indicator: TA1538, Metabolic Activation: RAT, LIVER, S-9, AROCLOR 1254, Method: STANDARD PLATE
[12] = Test System: AMES SALMONELLA TYPHIMURIUM, Strain/Indicator: TA98, Metabolic Activation: NONE, Method: STANDARD PLATE

In the case of `O=[N+]([O-])c1cc(Cl)c(Cl)c(Cl)c1Cl`, the mutagenic call (Test System: AMES SALMONELLA TYPHIMURIUM, Strain/Indicator: TA98, Metabolic Activation: HAMSTER, LIVER, S-9, AROCLOR 1254, Method: PREINCUBATION) is reported as “inactive; negative”, the mutagenic call [1] is reported as “inactive; negative” and the mutagenic call [2] is reported as “inactive; negative”. For the same compound, the mutagenic call (Test System: AMES SALMONELLA TYPHIMURIUM, Strain/Indicator: TA100, Metabolic Activation: HAMSTER, LIVER, S-9, AROCLOR 1254, Method: PREINCUBATION) was “inactive; negative”, the mutagenic call [3] was “inactive; negative” and the mutagenic call [4] was “inactive; negative”. For the same compound, the mutagenic call (Test System: AMES SALMONELLA TYPHIMURIUM, Strain/Indicator: TA1535, Metabolic Activation: HAMSTER, LIVER, S-9, AROCLOR 1254, Method: PREINCUBATION) was “inactive; negative”, the mutagenic call [5] was “inactive; negative” and the mutagenic call [6] was “inactive; negative”. The mutagenic call (Test System: AMES SALMONELLA TYPHIMURIUM, Strain/Indicator: TA1537, Metabolic Activation: HAMSTER, LIVER, S-9, AROCLOR 1254, Method: PREINCUBATION) was “inactive; negative”, the mutagenic call (Test System: AMES SALMONELLA TYPHIMURIUM, Strain/Indicator: TA1537, Metabolic Activation: NONE, Method: PREINCUBATION) was “inactive; negative” and the mutagenic call (Test System: AMES SALMONELLA TYPHIMURIUM, Strain/Indicator: TA1537, Metabolic Activation: RAT, LIVER, S-9, AROCLOR 1254, Method: PREINCUBATION) was “inactive; negative”.
With `O=C/C=C/C=C/C=O` the mutagenic call (Test System: AMES SALMONELLA TYPHIMURIUM, Strain/Indicator: TA97, Metabolic Activation: NONE, Method: PREINCUBATION) was “inactive; negative”, the mutagenic call (Test System: AMES SALMONELLA TYPHIMURIUM, Strain/Indicator: TA97, Metabolic Activation: NONE, Method: STANDARD PLATE) was “active; positive” and the mutagenic call (Test System: AMES SALMONELLA TYPHIMURIUM, Strain/Indicator: TA97, Metabolic Activation: RAT, LIVER, S-9, AROCLOR 1254, Method: PREINCUBATION) was “inactive; negative”. The mutagenic call (Test System: AMES SALMONELLA TYPHIMURIUM, Strain/Indicator: TA97, Metabolic Activation: RAT, LIVER, S-9, AROCLOR 1254, Method: STANDARD PLATE) was “active; positive”, the mutagenic call [1] was “inactive; negative” and the mutagenic call [2] was “inactive; negative”. The mutagenic call [7] was “inactive; negative”, the mutagenic call [3] was “inactive; negative” and the mutagenic call [8] was “inactive; negative”. For the same compound, the mutagenic call [4] was “inactive; negative”, the mutagenic call [9] was “inactive; negative” and the mutagenic call (Test System: AMES SALMONELLA TYPHIMURIUM, Strain/Indicator: TA102, Metabolic Activation: NONE, Method: PREINCUBATION) was “inactive; negative”. For the same compound, the mutagenic call (Test System: AMES SALMONELLA TYPHIMURIUM, Strain/Indicator: TA102, Metabolic Activation: RAT, LIVER, S-9, AROCLOR 1254, Method: PREINCUBATION) was “inactive; negative”, the mutagenic call (Test System: AMES SALMONELLA TYPHIMURIUM, Strain/Indicator: TA104, Metabolic Activation: NONE, Method: PREINCUBATION) was “inactive; negative” and the mutagenic call (Test System: AMES SALMONELLA TYPHIMURIUM, Strain/Indicator: TA104, Metabolic Activation: RAT, LIVER, S-9, AROCLOR 1254, Method: PREINCUBATION) was “inactive; negative”. The mutagenic call [5] was “inactive; negative”, the mutagenic call [6] was “inactive; negative” and the mutagenic call [10] was “inactive; negative”. For the same compound, the mutagenic call [11] was “inactive; negative”, the mutagenic call (Test System: CHINESE HAMSTER OVARY, Strain/Indicator: CHO-K1-BH4 (HGPRT), Metabolic Activation: NONE, Method: STANDARD PLATE) was “inactive; negative” and the mutagenic call (Test System: CHINESE HAMSTER V-79, Strain/Indicator: V-79 (HGPRT)/8-AZAGUANINE, Metabolic Activation: NONE) was “active; positive”. For the same compound, the mutagenic call (Test System: CHINESE HAMSTER V-79, Strain/Indicator: V-79/6-THIOGUANINE, Metabolic Activation: NONE) was “active; positive”, the mutagenic call (Test System: E. COLI, Strain/Indicator: WP2 UVRA, Metabolic Activation: NONE, Method: PREINCUBATION) was “inactive; negative” and the mutagenic call (Test System: E. COLI, Strain/Indicator: WP2 UVRA, Metabolic Activation: RAT, LIVER, S-9, AROCLOR 1254, Method: PREINCUBATION) was “inactive; negative”. The mutagenic call (Test System: UDS RODENT HEPATOCYTES, Strain/Indicator: THY INCORP (NON-S-PHASE), Metabolic Activation: NONE, Method: AUTORADIOGRAPHY) was “inactive; negative”.
`O=[N+]([O-])c1ccc2c3c4c(cccc4c4ccccc4c13)C1OC21` (stereo unspecified) was tested, and the mutagenic call (Test System: AMES SALMONELLA TYPHIMURIUM, Strain/Indicator: TA98(1,8-DNP6), Metabolic Activation: NONE, Method: STANDARD PLATE) was “inactive; negative”, the mutagenic call (Test System: AMES SALMONELLA TYPHIMURIUM, Strain/Indicator: TA98(1,8-DNP6), Metabolic Activation: RAT, LIVER, S-9, AROCLOR 1254, Method: STANDARD PLATE) was “inactive; negative” and the mutagenic call (Test System: AMES SALMONELLA TYPHIMURIUM, Strain/Indicator: TA98(NR), Metabolic Activation: NONE, Method: STANDARD PLATE) was “inactive; negative”. The mutagenic call (Test System: AMES SALMONELLA TYPHIMURIUM, Strain/Indicator: TA98(NR), Metabolic Activation: RAT, LIVER, S-9, AROCLOR 1254, Method: STANDARD PLATE) was “inactive; negative”, the mutagenic call [12] was “active; positive” and the mutagenic call [7] was “active; positive”.
For `COc1cc2nc3cc(N)c(OC)cc3nc2cc1N`, the mutagenic call (Test System: AMES SALMONELLA TYPHIMURIUM, Strain/Indicator: TA98, Metabolic Activation: S-9, Method: SUSPENSION/PLATE) was “active; positive”.
With `N=C(N)c1cc2ccc(Br)cc2[nH]1` the mutagenic call [12] was “inactive; negative”, the mutagenic call (Test System: AMES SALMONELLA TYPHIMURIUM, Strain/Indicator: TA98, Metabolic Activation: RAT, LIVER, S-9, PHENOBARBITAL, Method: STANDARD PLATE) was “inactive; negative” and the mutagenic call [8] was “inactive; negative”. For the same compound, the mutagenic call (Test System: AMES SALMONELLA TYPHIMURIUM, Strain/Indicator: TA100, Metabolic Activation: RAT, LIVER, S-9, PHENOBARBITAL, Method: STANDARD PLATE) was “inactive; negative”.
`O=C1c2c(O)ccc(O)c2C(=O)C2C(O)=CC=C(O)C12` (stereo unspecified) was tested, and the mutagenic call [12] was “inactive; negative”, the mutagenic call [7] was “inactive; negative” and the mutagenic call [8] was “inactive; negative”. The mutagenic call [9] was “inactive; negative”, the mutagenic call (Test System: AMES SALMONELLA TYPHIMURIUM, Strain/Indicator: TA1535, Metabolic Activation: NONE, Method: STANDARD PLATE) was “inactive; negative” and the mutagenic call [10] was “inactive; negative”. The mutagenic call (Test System: AMES SALMONELLA TYPHIMURIUM, Strain/Indicator: TA1537, Metabolic Activation: NONE, Method: STANDARD PLATE) was “active; positive” and the mutagenic call [11] was “inactive; negative”.
